Measurements published in patent US20030232851A1, “Viral treatment” (The Procter & Gamble Company, priority 1999, published 2003).
≈ marks a conversion by molar mass, not a printed value. Where “and” joins values, the source holds several entries; their conditions need not be identical. Identical values can stand only once.

Tests used:
HIV-2 virus, CEMROD = assay: In vitro screening against HIV-2 virus, CEMROD: reverse transcriptase activity; assay type: cell-based; parameters: Reverse Transcriptase Activity, samples 1-3 / Reverse Transcriptase Activity, average: unit not given here
Experimental: A microtiter-based reveres transcriptase (RT) reaction is utilized (Buckheit et al (1991) AIDS Research and Human Retroviruses 7:295-302). Tritiated thymidine triphosphate (NEN)(TTP) is resuspended in distilled water at 5 Ci/ml. Poly rA and oligo dT are prepared as a stock solution which is kept at −20° C. The RT reaction buffer is prepared fresh on a daily basis and consists of 125 μl 1M EGTA, 125 μl water, 125 μl Triton X-100, 50 μl Tris (pH 7.4), 50 μl 1 MDDT, and 40 μl 1M MgCl2. These three solutions are mixed together in a ratio of 1 part TTP, 2.5 parts poly rA:oligo dT, 2.5 parts reaction buffer and 4 parts distilled water. Ten microliters of this reaction mixture is placed in a round bottom microtiter place and 15 μl of virus containing supernatant is added and mixed. The plate is incubated at 37° C. for 60 minutes. Following reaction, the reaction volume is spotted onto filter mats, washed 6 times for 5 minutes each in a 5% sodium phosphate buffer, 2 times for 1 minute each in distilled water, 2 times for 1 minute each in 70% ethanol, and then dried. The dried filter mat is placed in a plastic sample bag, Betaplate scintillation fluid is added and the bag is heat sealed. Incorporated radioactivity is quantified utilizing a Wallac Microbeta scintillation counter.

Cryptococcus neoformans = assay: Anti-fungal activity (NCCLS M-27A based), Cryptococcus neoformans; assay type: cell-based
Experimental: (§1) It was active against cryptococcus neoformans and curvularai lunata. The cidal activity for the C. neoformans is high enough that it is clear […] against this yeast. This test was conducted using a method based upon NCCLS reference method M-27A published in 1997. Solvent, medium and growth controls were set-up with the tests. Once these were read to validate the test performance, the QC fungi were read to insure they had expected results. These steps validated the test system. DMSO was used as a drug-chemical solvent. […] The 90% cut-off is necessary for azoles, which are static and not cidal. The FMC or cidal level was determined by sub-culturing a sample from each tube showing no growth.

Curvularia lunata = assay: Anti-fungal activity (NCCLS M-27A based), Curvularia lunata; assay type: cell-based
Experimental: as §1

CEMROD = CEMROD screening: toxicity values (XTT); assay type: cell-based, human; parameters: Toxicity Values, samples 1-3 / Toxicity Values, average: unit not given here
Experimental: After 6 days (or the experimental period) of incubation at 37° C. in a 5% carbon dioxide incubator the test plates are analyzed by staining with the tetrazolium dye XTT. […] On day 6 post-infection plates are removed from the incubator and observed. […] The results of the macroscopic observations were confirmed and enhanced by further microscopic analysis.
Phenazine methosulfate (PMS) solution is prepared at 15 mg/ml in PBS and stored in the dark at −20° C. […] Fifty microliters of XTT/PMS is added to each well of the plate and the plate is reincubated or 4 hours at 37° C. […] Percent cell reduction, percent cell viability, IC25,50, & 95 and TC25,50, & 95 can then be calculated.

[1] = Table 2 duplicate study, 0.32 μg/ml
[2] = Table 2 duplicate study, 1 μg/ml
[3] = Table 2 duplicate study, 1.0 μg/ml
[4] = Table 2 duplicate study, 3.2 μg/ml
[5] = Table 2 duplicate study, 32 μg/ml
[6] = Table 2 duplicate study, 100 μg/ml

SMILES: c1csc(-c2nc3cccnc3[nH]2)c1 [2-(2-thienyl)-imidazolo [4,5-b]pyridine]
- Reverse Transcriptase Activity, % virus control (HIV-2 virus, CEMROD; Table 1, 0.32 μg/ml): 119%
- Reverse Transcriptase Activity, average (HIV-2 virus, CEMROD; Table 1, 0.32 μg/ml): 5947
- Reverse Transcriptase Activity, samples 1-3 (HIV-2 virus, CEMROD; Table 1, 0.32 μg/ml): 5878 and 5529 and 6435
- Reverse Transcriptase Activity, % virus control (HIV-2 virus, CEMROD; Table 1, 1 μg/ml): 103.8%
- Reverse Transcriptase Activity, average (HIV-2 virus, CEMROD; Table 1, 1 μg/ml): 5188
- Reverse Transcriptase Activity, samples 1-3 (HIV-2 virus, CEMROD; Table 1, 1 μg/ml): 5002 and 5086 and 5476
- Reverse Transcriptase Activity, % virus control (HIV-2 virus, CEMROD; Table 1, 1.0 μg/ml): 48.1%
- Reverse Transcriptase Activity, average (HIV-2 virus, CEMROD; Table 1, 1.0 μg/ml): 2403
- Reverse Transcriptase Activity, samples 1-3 (HIV-2 virus, CEMROD; Table 1, 1.0 μg/ml): 2812 and 2206 and 2190
- Reverse Transcriptase Activity, % virus control (HIV-2 virus, CEMROD; Table 1, 3.2 μg/ml): 84.0%
- Reverse Transcriptase Activity, average (HIV-2 virus, CEMROD; Table 1, 3.2 μg/ml): 4201
- Reverse Transcriptase Activity, samples 1-3 (HIV-2 virus, CEMROD; Table 1, 3.2 μg/ml): 4005 and 4017 and 4580
- Reverse Transcriptase Activity, % virus control (HIV-2 virus, CEMROD; Table 1, 32 μg/ml): 8.1%
- Reverse Transcriptase Activity, average (HIV-2 virus, CEMROD; Table 1, 32 μg/ml): 407
- Reverse Transcriptase Activity, samples 1-3 (HIV-2 virus, CEMROD; Table 1, 32 μg/ml): 382 and 390 and 450
- Reverse Transcriptase Activity, % virus control (HIV-2 virus, CEMROD; Table 1, 100 μg/ml): 1.4%
- Reverse Transcriptase Activity, average (HIV-2 virus, CEMROD; Table 1, 100 μg/ml): 72
- Reverse Transcriptase Activity, samples 1-3 (HIV-2 virus, CEMROD; Table 1, 100 μg/ml): 80 and 68
- Reverse Transcriptase Activity, % virus control (HIV-2 virus, CEMROD; [1]): 116.6%
- Reverse Transcriptase Activity, average (HIV-2 virus, CEMROD; [1]): 5616
- Reverse Transcriptase Activity, samples 1-3 (HIV-2 virus, CEMROD; [1]): 4758 and 5725 and 6365
- Reverse Transcriptase Activity, % virus control (HIV-2 virus, CEMROD; [2]): 121.1%
- Reverse Transcriptase Activity, average (HIV-2 virus, CEMROD; [2]): 5833
- Reverse Transcriptase Activity, samples 1-3 (HIV-2 virus, CEMROD; [2]): 4251 and 6264 and 6984
- Reverse Transcriptase Activity, % virus control (HIV-2 virus, CEMROD; [3]): 51.1%
- Reverse Transcriptase Activity, average (HIV-2 virus, CEMROD; [3]): 2463
- Reverse Transcriptase Activity, samples 1-3 (HIV-2 virus, CEMROD; [3]): 2776 and 2531 and 2081
- Reverse Transcriptase Activity, % virus control (HIV-2 virus, CEMROD; [4]): 100.0%
- Reverse Transcriptase Activity, average (HIV-2 virus, CEMROD; [4]): 4819
- Reverse Transcriptase Activity, samples 1-3 (HIV-2 virus, CEMROD; [4]): 5050 and 5352 and 4054
- Reverse Transcriptase Activity, % virus control (HIV-2 virus, CEMROD; [5]): 4.1%
- Reverse Transcriptase Activity, average (HIV-2 virus, CEMROD; [5]): 197
- Reverse Transcriptase Activity, samples 1-3 (HIV-2 virus, CEMROD; [5]): 173 and 177 and 241
- Reverse Transcriptase Activity, % virus control (HIV-2 virus, CEMROD; [6]): 0.9%
- Reverse Transcriptase Activity, average (HIV-2 virus, CEMROD; [6]): 44
- efficacy in treating HIV (in words) (HIV-2 virus, CEMROD; at the higher concentrations): shows efficacy
- MFC (Cryptococcus neoformans; Cryptococcus neoformans, cidal level): > 32 µg/mL
- MIC (Cryptococcus neoformans; Cryptococcus neoformans, growth inhibited or reduced at least 90%): 0.03 µg/mL (≈ 0.149 µM)
- activity against Cryptococcus neoformans (in words) (Cryptococcus neoformans; in vitro): active
- MIC (Curvularia lunata; Curvularia lunata, growth inhibited or reduced at least 90%): 0.03 µg/mL (≈ 0.149 µM)
- activity against Curvularia lunata (in words) (Curvularia lunata; in vitro): active
- Toxicity Values, % cell control (CEMROD; Table 1, 0.32 μg/ml): 102%
- Toxicity Values, average (CEMROD; Table 1, 0.32 μg/ml): 1.144
- Toxicity Values, % cell control (CEMROD; Table 1, 1 μg/ml): 100.1%
- Toxicity Values, average (CEMROD; Table 1, 1 μg/ml): 1.122
- Toxicity Values, % cell control (CEMROD; Table 1, 1.0 μg/ml): 81.3%
- Toxicity Values, average (CEMROD; Table 1, 1.0 μg/ml): 0.912
- Toxicity Values, % cell control (CEMROD; Table 1, 3.2 μg/ml): 94.1%
- Toxicity Values, average (CEMROD; Table 1, 3.2 μg/ml): 1.055
- Toxicity Values, % cell control (CEMROD; Table 1, 32 μg/ml): 28.7%
- Toxicity Values, average (CEMROD; Table 1, 32 μg/ml): 0.322
- Toxicity Values, % cell control (CEMROD; Table 1, 100 μg/ml): 7.6%
- Toxicity Values, average (CEMROD; Table 1, 100 μg/ml): 0.086
- Toxicity Values, % cell control (CEMROD; [1]): 114.7%
- Toxicity Values, average (CEMROD; [1]): 1.088
- Toxicity Values, samples 1-3 (CEMROD; [1]): 1.189 and 1.074 and 1.000
- Toxicity Values, % cell control (CEMROD; [2]): 108.4%
- Toxicity Values, average (CEMROD; [2]): 1.028
- Toxicity Values, samples 1-3 (CEMROD; [2]): 1.066 and 1.038 and 0.980
- Toxicity Values, % cell control (CEMROD; [3]): 72.2%
- Toxicity Values, average (CEMROD; [3]): 0.684
- Toxicity Values, samples 1-3 (CEMROD; [3]): 0.694 and 0.726 and 0.633
- Toxicity Values, % cell control (CEMROD; [4]): 98.9%
- Toxicity Values, average (CEMROD; [4]): 0.938
- Toxicity Values, samples 1-3 (CEMROD; [4]): 1.008 and 0.924 and 0.881
- Toxicity Values, % cell control (CEMROD; [5]): 17.4%
- Toxicity Values, average (CEMROD; [5]): 0.165
- Toxicity Values, samples 1-3 (CEMROD; [5]): 0.183 and 0.168 and 0.145
- Toxicity Values, % cell control (CEMROD; [6]): 13.5%
- Toxicity Values, average (CEMROD; [6]): 0.128
- Toxicity Values, samples 1-3 (CEMROD; [6]): 0.121 and 0.133 and 0.130
- toxicity (in words) (CEMROD; at the higher concentrations): not toxic
